# Results published in patent US6649656B1, “Anthranilic acid derivatives” (Teijin Limited, priority 1998, dated 2003).
# Like-named read-outs stand apart in the source and are kept apart here.
# How the values were obtained:
# Format in all cases: cell-based
# [1] = test system: IgE antibody production from human lymphocyte; assay: Human in vitro IgE antibody production suppressing activity (lymphocyte culture with IL-4 + IL-10 + anti-CD40 antibody, sandwich ELISA); details: for IC50: IgE antibody production; for inhibition at 1 µM: test drug concentration 1 μM, IL-4 + IL-10 + anti-CD40 antibody, read-out: IgE production suppressing ratio (%)
# Procedure: (§1) The concentrations of IgE and IgG antibodies were measured by the following method according to the method described in the Journal of Immunology vol.146, pp.1836-1842, 1991 and the Journal of Immunology vol. 147, pp.8-13, 1991.
# (§2) Concretely, lymphocyte was separated from the peripheral venous blood of healthy person by density gradient centrifugation. The obtained lymphocyte was washed, suspended in a culture liquid (RPMI-1640 (product of Gibco Co.)+10% heat-inactivated FCS (product of Whittaker Co.)+100 μg/ml streptomycin+100 U/ml penicillin G+2 mM L-glutamine) and cultured for a week in the presence of interleukin 4 (IL-4, product of GENZYME Co.) (0.1 μg/ml), anti-CD40 antibody (antiCD40Aab, product of BIOSOURCE Co.), clone B-B20) (2 μg/ml) and interleukin 10 (IL-10, product of GENZYME Co.) (0.2 μg/ml) in the presence or absence of the compounds of the present invention described in the Tables 10 to 15 at various concentrations as test drugs.
# (§3) The culture liquid was added to the culture system, the culture was continued for additional one week, and the concentrations of IgE and IgG antibodies in the supernatant were measured by sandwich ELISA method.
# (§4) The measurement by ELISA method was carried out according to the known ELISA method by using rabbit anti-human IgE(ε) antibody (product of ICN Co.) as the primary antibody and biotin.anti-human IgE monoclonal antibody (G7-26, product of PharMingen Co.) as the secondary antibody for the measurement of IgE antibody concentration and anti-human IgG monoclonal antibody (G18-145, product of PharMingen Co.) as the primary antibody and biotin-donkey anti-human IgG antibody (H+L) (product of Jackson Co.) as the secondary antibody for the measurement of IgG antibody concentration, and using avidin-biotin-hourse radish peroxidase (ABC kit, product of Vector Lab.) as the enzyme and TMB (3,3′,5,5′-tetramethylbenzidine) microwell peroxidase substrate system (product of Kirkegaard & Perry Laboratories Inc.) as the substrate.
# (§5) The value of IC50 and the suppressing ratio (%) at the test drug concentration of 1 μM were calculated based on the concentration attained in the absence of the compound of the present invention (reference: Ueshimna, et al. American Academy of Allergy & Immunology, 1995 Annual Meeting, Program No.818).
# [2] = test system: IgG antibody production from human lymphocyte; assay: Human in vitro IgG antibody production (same lymphocyte culture, sandwich ELISA); details: for inhibition at 1 µM: Homo sapiens, Lymphocyte, test drug concentration 1 μM, IL-4 + IL-10 + anti-CD40 antibody, read-out: IgG production suppressing ratio (%); for IC50: IgG antibody production
# Procedure: as §1, §2, §3, §4, §5
# L929 cells = assay: Measurement of cytotoxicity using mouse tumor cell L929 (neutral red assay)
# Procedure: [Procedure] The cytotoxicity action on tumor cell was measured by neutral red assay (the method described in the Journal of Tissue Culture Methodology vol.9, p.7 (1984) and Toxicology Letters, vol.24, p.119 (1985)). Concretely, L929 cells (5×10^4 cells/ml, 10% FCS/RPMI) were added to the wells of a 96 well ELISA plate at a rate of 100 μL each and cultured for a night, and the testing compounds of respective measurement concentrations were dissolved in DMSO solution and added to the above cells. The culture was continued for 3 days, and 2.0 μL of Neutral Red was added to attain the final concentration of 0.01%. The mixture was incubated for 1 hour at 37° C., the supernatant of the cell culture product was removed and the residue was washed twice with 200 μL of PBS to remove excess Neutral Red. Thereafter, the dye taken into the cell was extracted by adding 100 μL of 50% ethanol-1% acetic acid aqueous solution and the amount of the dye was determined by measuring the absorbance at 490 nm. The cytotoxicity was determined at each concentration of the test compound taking the cytotoxicity free from the drug as 100%. […] Two sets of measurement were performed for each test under the same condition and the average value was used as the test result.
# [3] = test system: Cultured human cancer cells; assay: Carcinostatic action on cultured human cancer cell (sulforhodamine B; GI50, TGI, LC50); details: for CC50 / GI50: Homo sapiens
# Procedure: [Procedure] Cultured human cancer cells (39 kinds) were scattered on a 96 well plate, a solution of the testing substance (5-stage concentrations starting from 10^−4 M and diluted 10 times to 10^−8 M) was added thereto on the next day and the cells were cultured for 2 days. The number of the proliferated cells on each plate was determined by colorimetric quantitative analysis with sulforhodamine B. The concentration to suppress the proliferation of cell by 50% (GI50) compared with a control (free from the testing substance) was calculated and the following values (concentrations) were calculated based on the number of cells immediately before the addition of the testing substance.
# TGI: concentration to suppress the proliferation to a standard cell number (free from the change of apparent number of cells)
# LC50: concentration to decrease the number of cells to 50% of the standard cell number (cytocidal activity)
# The proliferation-suppressing results of three testing substances 124, 257 and 983 on 9 representative cancer cell strains are collectively shown in the Tables 93 to 95.
# [4] = 72 h, cytotoxic activity against L929, neutral red assay, 3 days culture, read-out: LD50 (the source's name)
smiles,measurement,setting,value
O=C(Cc1ccc(Oc2ccc(OC3CCC(NS(=O)(=O)c4ccccc4)CC3)cc2)cc1)Nc1ccccc1C(=O)O (stereo not drawn) [compound 121],IC50,[1],0.027 µM
same,inhibition at 1 µM,[1],100%
same,inhibition at 1 µM,[2],77.5%
same,IC50,[2],0.543 µM
same,CC50,"L929 cells; L929, 72 h, read-out: LD50 (μM)",1.8 µM
O=C(Cc1ccc(Oc2ccc(OC3CCC(NS(=O)(=O)c4ccc(Cl)c(Cl)c4)CC3)cc2)cc1)Nc1ccccc1C(=O)O (stereo not drawn) [compound 124],CC50,L929 cells; [4],0.14 µM
same,TGI,[3]; HBC-4,18 µM
same,TGI,[3]; HCT-15,17 µM
same,CC50,"[3]; HBC4, HBC-4",57 µM
same,GI50,"[3]; HBC4, HBC-4",0.25 µM
same,CC50,[3]; HCT-15,58 µM
same,GI50,[3]; HCT-15,0.17 µM
same,CC50,[3]; MKN-74,> 100 µM
same,GI50,[3]; MKN-74,0.086 µM
same,CC50,[3]; NCI-H460,69 µM
same,GI50,[3]; NCI-H460,0.091 µM
same,CC50,[3]; OVCAR-8,57 µM
same,GI50,[3]; OVCAR-8,3.1 µM
same,CC50,[3]; PC-3,55 µM
same,GI50,[3]; PC-3,10 µM
same,CC50,[3]; RXF-631L,38 µM
same,GI50,[3]; RXF-631L,0.13 µM
same,CC50,[3]; SF-539,57 µM
same,GI50,[3]; SF-539,0.13 µM
same,CC50,[3]; LOX-IMVI,45 µM
same,GI50,[3]; LOX-IMVI,0.09 µM
same,TGI,[3]; LOX-IMVI,10 µM
same,TGI,[3]; MKN-74,16 µM
same,TGI,[3]; NCI-H460,14 µM
same,TGI,[3]; OVCAR-8,23 µM
same,TGI,[3]; PC-3,24 µM
same,TGI,[3]; RXF-631L,12 µM
same,TGI,[3]; SF-539,26 µM
O=C(Cc1ccc(Oc2ccc(OC3CCC(NC(=O)Nc4ccccc4)CC3)cc2)cc1)Nc1ccccc1C(=O)O (stereo not drawn) [compound 138],CC50,L929 cells; [4],0.13 µM
CNc1ccccc1C(=O)N[C@H]1CC[C@@H](Oc2ccc(Oc3ccc(CC(=O)Nc4ccccc4C(=O)O)cc3)cc2)CC1 [compound 156],CC50,L929 cells; [4],0.3 µM
Cn1c(C(=O)N[C@H]2CC[C@@H](Oc3ccc(Oc4ccc(CC(=O)Nc5ccccc5C(=O)O)cc4)cc3)CC2)cc2ccccc21 [compound 167],CC50,L929 cells; [4],0.18 µM
O=C(Cc1ccc(Oc2ccc(O[C@H]3CC[C@@H](NC(=O)c4ccc(-c5ccccc5)cc4)CC3)cc2)cc1)Nc1ccccc1C(=O)O [compound 192],CC50,L929 cells; [4],0.26 µM
O=C(Cc1ccc(Oc2ccc(O[C@H]3CC[C@@H](NC(=O)c4ccc(Oc5cc(Cl)cc(Cl)c5)o4)CC3)cc2)cc1)Nc1ccccc1C(=O)O [compound 248],CC50,L929 cells; [4],0.085 µM
O=C(Cc1ccc(Oc2ccc(OC3CCN(Sc4ccc(Cl)c(Cl)c4)CC3)cc2)cc1)Nc1ccccc1C(=O)O [compound 257],TGI,[3]; HBC-4,18 µM
same,TGI,[3]; HCT-15,17 µM
same,CC50,"[3]; HBC4, HBC-4",58 µM
same,GI50,"[3]; HBC4, HBC-4",< 0.01 µM
same,CC50,[3]; HCT-15,53 µM
same,GI50,[3]; HCT-15,< 0.01 µM
same,CC50,[3]; MKN-74,> 100 µM
same,GI50,[3]; MKN-74,< 0.01 µM
same,CC50,[3]; NCI-H460,44 µM
same,GI50,[3]; NCI-H460,< 0.01 µM
same,CC50,[3]; OVCAR-8,59 µM
same,GI50,[3]; OVCAR-8,< 0.01 µM
same,CC50,[3]; PC-3,69 µM
same,GI50,[3]; PC-3,10 µM
same,CC50,[3]; RXF-631L,42 µM
same,GI50,[3]; RXF-631L,< 0.01 µM
same,CC50,[3]; SF-539,51 µM
same,GI50,[3]; SF-539,< 0.01 µM
same,CC50,[3]; LOX-IMVI,44 µM
same,GI50,[3]; LOX-IMVI,< 0.01 µM
same,TGI,[3]; LOX-IMVI,10 µM
same,TGI,[3]; MKN-74,16 µM
same,TGI,[3]; NCI-H460,11 µM
same,TGI,[3]; OVCAR-8,23 µM
same,TGI,[3]; PC-3,26 µM
same,TGI,[3]; RXF-631L,14 µM
same,TGI,[3]; SF-539,17 µM
N#Cc1cccc(SN2CCC(Oc3ccc(Oc4ccc(CC(=O)Nc5ccccc5C(=O)O)cc4)cc3)CC2)c1 [compound 264],CC50,L929 cells; [4],0.156 µM
O=C(Cc1ccc(Oc2ccc(OCC3(NSc4ccccc4)CCCC3)cc2)cc1)Nc1ccccc1C(=O)O [compound 268],CC50,L929 cells; [4],0.16 µM
CCOCCOc1ccc(Oc2ccc(CC(=O)Nc3ccccc3C(=O)O)cn2)cc1 [compound 415],IC50,[1],0.028 µM
same,inhibition at 1 µM,[1],100%
same,inhibition at 1 µM,[2],-85.8%
same,IC50,[2],9.76 µM
O=C(Cc1ccc(Oc2ccc3cc(OCCN4CCOCC4)ccc3c2)nc1)Nc1ccccc1C(=O)O [compound 427],IC50,[1],0.04 µM
same,inhibition at 1 µM,[1],96.4%
same,inhibition at 1 µM,[2],> 10%
same,IC50,[2],> 10 µM
O=C(Cc1ccc(Oc2ccc(OC3CCCCCCC3)cc2)nc1)Nc1ccccc1C(=O)O [compound 983],TGI,[3]; HBC-4,76 µM
same,TGI,[3]; HCT-15,30 µM
same,CC50,"[3]; HBC4, HBC-4",> 100 µM
same,GI50,"[3]; HBC4, HBC-4",0.59 µM
same,CC50,[3]; HCT-15,> 100 µM
same,GI50,[3]; HCT-15,0.1 µM
same,CC50,[3]; MKN-74,> 100 µM
same,GI50,[3]; MKN-74,0.46 µM
same,CC50,[3]; NCI-H460,95 µM
same,GI50,[3]; NCI-H460,0.33 µM
same,CC50,[3]; OVCAR-8,> 100 µM
same,GI50,[3]; OVCAR-8,4.2 µM
same,CC50,[3]; PC-3,> 100 µM
same,GI50,[3]; PC-3,4.5 µM
same,CC50,[3]; RXF-631L,96 µM
same,GI50,[3]; RXF-631L,0.4 µM
same,CC50,[3]; SF-539,51 µM
same,GI50,[3]; SF-539,0.6 µM
same,CC50,[3]; LOX-IMVI,50 µM
same,GI50,[3]; LOX-IMVI,0.26 µM
same,TGI,[3]; LOX-IMVI,3.4 µM
same,TGI,[3]; MKN-74,25 µM
same,TGI,[3]; NCI-H460,16 µM
same,TGI,[3]; OVCAR-8,40 µM
same,TGI,[3]; PC-3,31 µM
same,TGI,[3]; RXF-631L,18 µM
same,TGI,[3]; SF-539,20 µM
